Reference: PubChem BioAssay (NCI)
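Where inhibition never reached the appropriate level, the endpoint shown equals the highest concentration tested. Otherwise, values were interpolated linearly from a five-concentration, 48-hour dose response in 96-well plates. At the GI50, growth is halved. The concentration for full growth arrest is given as TGI.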

What was measured:
Experiment in all cases: NCI-60 cell line screen, 48 h
[1] = tested on: 786-0 renal
[2] = tested on: A498 renal
[3] = tested on: A549 NSCLC
[4] = tested on: ACHN renal
[5] = tested on: BT-549 breast
[6] = tested on: CAKI-1 renal
[7] = tested on: CCRF-CEM leukemia
[8] = tested on: COLO 205 colon
[9] = tested on: DU-145 prostate
[10] = tested on: EKVX NSCLC
[11] = tested on: HCC-2998 colon
[12] = tested on: HCT-116 colon
[13] = tested on: HCT-15 colon
[14] = tested on: HL-60(TB) leukemia
[15] = tested on: HOP-62 NSCLC
[16] = tested on: HOP-92 NSCLC
[17] = tested on: HS 578T breast
[18] = tested on: HT29 colon
[19] = tested on: IGROV1 ovarian
[20] = tested on: K-562 leukemia
[21] = tested on: KM12 colon
[22] = tested on: LOX IMVI melanoma
[23] = tested on: M14 melanoma
[24] = tested on: MALME-3M melanoma
[25] = tested on: MCF7 breast
[26] = tested on: MDA-MB-231 breast
[27] = tested on: MDA-MB-435
[28] = tested on: MOLT-4 leukemia
[29] = tested on: NCI-H226 lung
[30] = tested on: NCI-H23 lung
[31] = tested on: NCI-H460 lung
[32] = tested on: NCI-H522 lung
[33] = tested on: NCI/ADR-RES ovarian
[34] = tested on: OVCAR-3 ovarian
[35] = tested on: OVCAR-4 ovarian
[36] = tested on: OVCAR-5 ovarian
[37] = tested on: OVCAR-8 ovarian
[38] = tested on: PC-3 prostate
[39] = tested on: RPMI-8226 leukemia
[40] = tested on: RXF 393 renal
[41] = tested on: SF-268 CNS
[42] = tested on: SF-295 CNS
[43] = tested on: SF-539 CNS
[44] = tested on: SK-MEL-2 melanoma
[45] = tested on: SK-MEL-28 melanoma
[46] = tested on: SK-OV-3 ovarian
[47] = tested on: SN12C renal
[48] = tested on: SNB-19 CNS
[49] = tested on: SNB-75 CNS
[50] = tested on: SW-620 colon
[51] = tested on: T-47D breast
[52] = tested on: TK-10 renal
[53] = tested on: U251 CNS
[54] = tested on: UACC-257 melanoma
[55] = tested on: UACC-62 melanoma
[56] = tested on: UO-31 renal

Which results are given for `COc1cc(OC)cc(N(CCNC(C)C)c2ccc3ncc(-c4cnn(C)c4)nc3c2)c1`?
GI50 [1]: 2.9 µM; TGI [1]: 13.6 µM; TGI [2]: 3.5 µM; GI50 [3]: 5.33 µM; TGI [3]: 19.1 µM; GI50 [4]: 2.18 µM; TGI [4]: 8.12 µM; GI50 [5]: 2.78 µM; TGI [5]: 17.9 µM; GI50 [6]: 2.8 µM; TGI [6]: 13.3 µM; GI50 [7]: 8.48 µM; TGI [7]: 47 µM; GI50 [8]: 4.64 µM; TGI [8]: 18.5 µM; GI50 [9]: 5.29 µM; TGI [9]: 17.9 µM; GI50 [10]: 13.1 µM; TGI [10]: 27 µM; GI50 [11]: 11.2 µM; TGI [11]: 24.9 µM; GI50 [12]: 4.55 µM; TGI [12]: 17 µM; GI50 [13]: 3.34 µM; TGI [13]: 13.5 µM; GI50 [14]: 7.37 µM; TGI [14]: 22.7 µM; GI50 [15]: 4.63 µM; TGI [15]: 20 µM; GI50 [16]: 3.32 µM; TGI [16]: 15.5 µM; GI50 [17]: 1.49 µM; TGI [17]: 6.19 µM; GI50 [18]: 3.72 µM; TGI [18]: 15.7 µM; GI50 [19]: 3.02 µM; TGI [19]: 11.1 µM; GI50 [20]: 2.11 µM; TGI [20]: 10.8 µM; GI50 [21]: 7.53 µM; TGI [21]: 21.8 µM; GI50 [22]: 2.71 µM; TGI [22]: 11.8 µM; GI50 [23]: 4.45 µM; TGI [23]: 18.6 µM; GI50 [24]: 6.48 µM; TGI [24]: 21.5 µM; GI50 [25]: 10.5 µM; TGI [25]: 24.3 µM; GI50 [26]: 4.63 µM; TGI [26]: 18.4 µM; GI50 [27]: 5.73 µM; TGI [27]: 19 µM; GI50 [28]: 2.99 µM; TGI [28]: 12 µM; GI50 [29]: 4.53 µM; TGI [29]: 23 µM; GI50 [30]: 6.9 µM; TGI [30]: 20.9 µM; GI50 [31]: 5.25 µM; TGI [31]: 18.1 µM; GI50 [32]: 7.82 µM; TGI [32]: 23.4 µM; GI50 [33]: 5.8 µM; TGI [33]: 22 µM; GI50 [34]: 5.6 µM; TGI [34]: 20.2 µM; GI50 [35]: 2.25 µM; TGI [35]: 14.8 µM; GI50 [36]: 5.42 µM; TGI [36]: 19.8 µM; GI50 [37]: 4.75 µM; TGI [37]: 18.9 µM; GI50 [38]: 6.54 µM; TGI [38]: 23.2 µM; GI50 [39]: 7.3 µM; TGI [39]: 33.1 µM; GI50 [40]: 1.2 µM; TGI [40]: 5.16 µM; GI50 [41]: 3.53 µM; TGI [41]: 19 µM; GI50 [42]: 10.8 µM; TGI [42]: 25.1 µM; GI50 [43]: 0.586 µM; TGI [43]: 7.25 µM; GI50 [44]: 7.31 µM; TGI [44]: 25 µM; GI50 [45]: 10.9 µM; TGI [45]: 24.3 µM; GI50 [46]: 1.99 µM; TGI [46]: 6 µM; GI50 [47]: 3.96 µM; TGI [47]: 15.9 µM; GI50 [48]: 10.9 µM; TGI [48]: 24.9 µM; GI50 [49]: 0.523 µM; TGI [49]: 4.2 µM; GI50 [50]: 6.38 µM; TGI [50]: 20.4 µM; GI50 [51]: 12.7 µM; TGI [51]: 30.3 µM; GI50 [52]: 2.81 µM; TGI [52]: 12.1 µM; GI50 [53]: 4.32 µM; TGI [53]: 19.6 µM; GI50 [54]: 9.49 µM; TGI [54]: 23.4 µM; GI50 [55]: 6.76 µM; TGI [55]: 21.5 µM; GI50 [56]: 2.23 µM; TGI [56]: 12.3 µM
